The values below come from patent US20180153993A1, “COMPOSITIONS AND METHODS FOR TREATMENT AND PREVENTION OF CARDIOVASCULAR DISEASES” (The Chinese University of Hong Kong, priority 2016, published 2018).

In one assay the test system is RhoA. Briefly: GST-RBD pull-down for active RhoA (GTP-RhoA) detection. The assay is classed as cell-based, human. The following applies: MnCl2 treatment. The procedure:
GST-RBD recombinant protein was purified from BL21 (DE3) Escherichia coli and affinity conjugated to glutathione sepharose beads (Pharmacia). For GST affinity pull-down, 10^7 cells were lysed in 1 ml Weak Lysis Buffer (Beyotime) supplemented with protease inhibitors (Roche). Cell lysates were centrifuged at 15,000 g at 4° C. for 20 min to remove cell debris. Cell lysates were incubated in sepharose beads conjugated with 1 μg GST-RBD and incubate at 4° C. for 2 h with constant agitation, and precipitated by centrifugation at 1,000 r.p.m. for 10 min. After three washes, beads were collected by centrifugation and boiled in 2× SDS loading buffer for 5 min. The active RhoA was determined by western blotting.

The subject of assay [1] is YAP/TAZ. Description: YAP/TAZ reporter (8xGTIIC-luc) gene activity in HUVECs. The assay is classed as cell-based, human.
The subject of assay [2] is YAP/TAZ. Description: YAP/TAZ nuclear exportation in HUVECs. The assay is classed as cell-based, human.
In the next assay the test system is ApoE−/− mice. Briefly: Oral administration of MnCl2 in ApoE-/- mice on Western diet, Oil Red O staining of atherosclerotic plaques. In kind it is in vivo, mouse. Particulars: Western diet 12 weeks, MnCl2 oral in drinking water 5 mg/kg body weight. The procedure: ApoE^−/− mice (male, 12 weeks old) were fed a Western diet, and MnCl2 was administered through voluntary water consumption. Water consumption rate was predetermined by monitoring the volume of water remained. MnCl2 was supplemented to drinking water to achieve 5 mg/kg body weight. Mice body weight and water consumption were adjusted weekly to adapt to the change of body weight and water consumption. After feeding on the Western diet for 3 months, the mice were killed and the atherosclerotic plaque formation was determined by Oil Red O staining.
The ApoE^−/− mice were killed by CO2 asphyxiation. Mouse aortas were dissected in cold PBS and cut open to expose the atherosclerotic plaques. After fixation in 4% formaldehyde for 16 h at 4° C., the tissues were first rinsed in water for 10 min and then in 60% isopropanol. The aortas were stained with Oil Red O for 15 min with gentle shaking, and rinsed again in 60% isopropanol and then in water for three rinses. The samples were fixed on the cover slides with the endothelial surface facing upwards. The images were recorded using an HP Scanjet G4050. The plaque areas were determined using National Institutes of Health ImageJ software and calculated by expressing the plaque area relative to the total vascular area.

In another assay the test system is YAP. Briefly: YAP phosphorylation (Ser127, pYAP) by immunoblotting in HUVECs. In kind it is cell-based, human. The procedure: Cells or tissues were homogenized in cold RIPA lysis buffer supplemented with complete protease inhibitors cocktail and phosSTOP phosphatase inhibitor (Roche). The protein concentration was determined using Bradford Assay (Bio-Rad). Ten micrograms of protein were resolved by SDS-polyacrylamide gel electrophoresis and transferred to the PVDF membrane (Bio-Rad). Target protein was detected using specific primary antibody. Bound antibodies were detected by horseradish-peroxidase-conjugated secondary antibody and visualized by enhanced chemiluminescence (Cell Signaling Technology). Experiments were repeated three times and the target protein level was quantified by imageJ and normalized to internal control (or pYAP was normalized by total YAP) (FIGS. 10 and 11).
(§1) HUVECs and human aortic ECs were purchased from Lonza (EGM, Clonetics, Lonza, Walkersville, Md., USA). Lonza guarantees that the cells express CD31/105, von Williebrand Factor VIII, and are positive for acetyated low density lipoprotein uptake. Mycoplasma contamination was not tested during the experiments. HUVECs maintained in EGM supplemented with EGS and FBS at 37° C. in an incubator with 95% humidified air and 5% CO2 and passed every 3 days. Cells within seven passages were used in in vitro study.
A general note: Immunoblotting shows a protein as a band on a membrane.

For assay [3], the system named is YAP/TAZ. Description: YAP/TAZ reporter gene activity assay of anti-atherosclerotic agents (YAP/TAZ inhibition test). The assay is classed as cell-based, human. The following applies: working concentrations of Table 1: apelin 100 nM, ApoA1 10 μg/mL, niacin 3 to 5 mM, statins 1-10 μM. The text has this: Adenovirus-mediated reporter system and immortalized human aortic endothelial cells (HAECs) are used for drug screening. […] Endothelial cells express specific receptors that determine their unique response to different drug treatment. Therefore, it is necessary to use endothelial cells to study the YAP/TAZ inhibitory effect of lead drugs. Since primary endothelial cells from different donors contain distinct genetic background, which might cause significant variation between different batches of experiments, the immortalized human aortic endothelial cells are used. However, endothelial cells are difficult to be transformed, which could delay research progress and increase cost. To overcome this problem, the inventors have generated adenoviral expressing YAP/TAZ luciferase reporter and renilla internal control. The entire screening process can be completed in two days.

In assay [4] the test system is YAP/TAZ. Briefly: YAP/TAZ target gene expression (CTGF, CYR61), quantitative real-time PCR in HUVECs. In kind it is cell-based, human. Particulars: CTGF and CYR61. The procedure: RNA was extracted by using TRIzol Reagent (Thermo) according to the manufacturer's protocol. cDNA was synthesized using a High-Capacity cDNA Reverse Transcription Kit (Thermo). Quantitative PCR was performed using SYBR Select (Thermo) following the manufacturer's protocol. GAPDH was used as the internal control. Primers used for quantitative real-time PCR were included in Table 2.
as §1
In general terms: Real-time PCR tracks product formation cycle by cycle.

On to `[Cl][Mn][Cl]` [MnCl2], for which the “GTP-RhoA (active RhoA)” value in the assay on RhoA is listed as “GTP-RhoA suppression”. For the same molecule, in the assay on YAP/TAZ [1], the “YAP/TAZ reporter gene activity” value was “reduced YAP/TAZ reporter gene activity”. In the assay on YAP/TAZ [2], the YAP/TAZ nuclear exportation entry was “induced YAP/TAZ nuclear exportation”. Further, the atherosclerotic plaque formation result in the assay on ApoE−/− mice was “reduced plaque formation”. For the same molecule, in the assay with YAP (MnCl2 0.5 mM), the “YAP phosphorylation (pYAP)” value is “increased pYAP”.

In the case of `O=C(O)c1cccnc1` [niacin, Nicotinic acid], in the assay with YAP/TAZ [3], the “YAP/TAZ activity (reporter gene)” value was “suppressed YAP/TAZ activity”.

In the case of Apelin, the “YAP/TAZ activity (reporter gene)” value with YAP/TAZ [3] is on record as “suppressed YAP/TAZ activity”.

Turning to ApoA1, the “YAP/TAZ activity (reporter gene)” value with YAP/TAZ [3] is on record as “suppressed YAP/TAZ activity”.

On to GRGDSP, for which the “YAP/TAZ target gene expression” value with YAP/TAZ [4] is reported as “suppressed YAP/TAZ target gene expression”. For the same molecule, the “YAP phosphorylation (pYAP)” value in the assay with YAP (GRGDSP 100 μg ml−1) is recorded as “increased pYAP”.
